Laboratory results from patent publication US4362667A, “Optical isomers of 4-amino-N-(1-cyclohexyl-3-pyrrolidinyl)-N-methylbenzamide” (A. H. Robins Company, Inc., priority 1981, dated 1982).

Test system: rat
Assay: Cataleptic effects
Type: in vivo
Details: fumarate salt, expressed as free base
Description: The procedure used for determing cataleptic effects of the fumarate salte was based on that of Tedeschi et al., Arch. Int. Pharmacodyn.

Q: What does the source list for `CN(C(=O)c1ccc(N)cc1)C1CCN(C2CCCCC2)C1` (single isomer, unassigned; (+)) [(+)-isomer, (+)-4-Amino-N-(1-cyclohexyl-3-pyrrolidinyl)-N-methylbenzamide]?
A: cataleptic effect, Summary (IP): NSE to 100; cataleptic effect, Summary (PO): NSE to 200

Q: How did the “cataleptic effect, Ed50 (estimated)” value (PO) turn out when `CN(C(=O)c1ccc(N)cc1)C1CCN(C2CCCCC2)C1` (single isomer, unassigned; (-)) [(-)-isomer, (-)-4-amino-N-(1-cyclohexyl-3-pyrrolidinyl)-N-methylbenzamide] was run?
A: ~80 mg/kg

Q: Which “cataleptic effect, Summary” value (IP) does the source give for `CN(C(=O)c1ccc(N)cc1)C1CCN(C2CCCCC2)C1` (racemic) [± racemate, 4-Amino-N-(1-cyclohexyl-3-pyrrolidinyl)-N-methylbenzamide] here?
A: NSE to 100

Q: And the “cataleptic effect, Summary” value (PO)?
A: NSE to 200
